In PMC9207806 (ACS Chemical Biology, 2022):
Where two headings read alike, the source gives them in different places.

What was measured:
[1] = molecular target: T1, D9 (Vaccinia virus, UniProt P04311); assay: Time-dependent fluorescence changes of probes 1a-1e on D9 cleavage; assay type: biochemical; conditions: probe 100 nM, D9 50 nM, pH 7.5 (Figure S1)
T1 construct: His-tag (C); made in house
Method: Fluorescence emission spectra were recorded using the Agilent Cary Eclipse fluorescence spectrophotometer equipped with the xenon lamp under temperature-controlled conditions. All experiments were performed at 37 °C in the Hellma quartz cuvette (10 × 4 mm) with a sample volume 1000 μL in 10 mM Tris·HCl (pH 7.5), 100 mM KOAc, 2 mM MgCl2, 0.5 mM MnCl2, and 2 mM DTT. Before each measurement, the buffer was degassed. Emission spectra were registered for all excitation maxima (detailed wavelengths for each probe: 1a—exc. 490/em. 512 nm; 1b, 1d, and 1e—345/378 nm; and 1c—420/489 nm).

[2] = molecular target: T2, VACV D9 decapping enzyme (Vaccinia virus, UniProt P04311); assay: biochemical; assay type: biochemical
T2 construct: His-tag (C); made in house
Method: (§1) Point fluorescence measurements were performed using the BioTek Synergy H1 microplate reader. Before each measurement, the reaction buffer was degassed. Experiments were performed in the Greiner 96-well, black, non-binding plates at 30 °C. Before the measurement, the plate was preincubated for 15 min at 30 °C with mixing (300 rpm). The point fluorescence was registered with 1 min interval and detection at 345 nm excitation wavelength and 378 nm emission wavelength.
Experiments to determine IC50 parameters were performed as point fluorescence measurements. Each well contained an appropriate buffer (10 mM MOPS·HCl, pH 7.0, 100 mM KOAc, containing 2 mM MgCl2, 0.3 mM MnCl2, and 2 mM DTT) with addition of 0.1% BSA, a fluorescent substrate (3 μM of probe 1b), an inhibitor (in half-logarithmic dilution, cinh ∈ 0, 100 μM), and an enzyme (5 nM of D9) to a final volume of 150 μL. To determine the IC50 values, a three parameter dose–response formula with standard hill slope from GraphPad Prism software was fitted [drawing 3] where V/V0 is the relative initial rate of the reaction, Imin and Imax are bottom and top plateaus, and Cinh is the concentration of the inhibitor.

[3] = molecular target: T1, D9; conditions: cited from earlier work
[4] = molecular target: T1, D9; assay type: biochemical; conditions: 30 μM compound, 25 nM D9, 30 °C, 2 h, RP HPLC
[5] = tested on: SpDcp1/Dcp2; conditions: cited from earlier work
[6] = molecular target: T3, VACV D10 (Vaccinia virus, UniProt P04312); assay type: biochemical
T3 construct: made in house

[7] = tested on: C[n+]1cn([C@@H]2O[C@H](COP(=O)(O)OP(=O)([O-])OP(=O)(O)CCc3cn(CCOCCOCCNC(=O)Cc4ccc5ccc6cccc7ccc4c5c67)nn3)[C@@H](O)[C@H]2O)c2nc(N)[nH]c(=O)c21; assay: Michaelis-Menten kinetics of probe 1b hydrolysis by D9; assay type: biochemical, Vaccinia virus; conditions: other: probe 0-15 μM, 5 nM D9; means of three experiments ± SEM; pH 7.0; 30.0 °C
Method: as §1
To determine the kinetic parameters of enzymatic hydrolysis of probe 1b by D9 enzyme, point fluorescence measurements were performed. Each well of the plate contained an appropriate buffer (10 mM MOPS·HCl, pH 7.0, 100 mM KOAc, containing 2 mM MgCl2, 0.3 mM MnCl2, and 2 mM DTT) with addition of 0.1% BSA, a substrate (probe 1b at a concentration range 0–15 μM) and an enzyme (5 nM of D9) to a final volume of 150 μL. The measurement was carried out on until full saturation, which allowed us to convert the initial rates from au/min to mol/min/mg. The initial rates were calculated by fitting a linear curve to the first 10 points (10 min) of the hydrolysis reaction. […]

[8] = in-house nucleotide library (Table S1, Figure 3), 3 μM probe 1b, 5 nM D9, 30 °C, means of 3 independent experiments ± SEM, read-out: IC50, nucleotide-derived compounds, FLINT HTS assay
[9] = read-out: IC50, nucleotide-derived compounds, FLINT HTS assay, in-house nucleotide library (Table S1, Figure 3), 3 μM probe 1b, 5 nM D9, 30 °C, means of 3 independent experiments ± SEM

Row | Compound | IC50 [2, 8] [µM] | also measured
1 | Cc1cc(C)n2c1C=C1C=CC(CNC(=O)CSP(=O)([O-])OP(=O)(O)OP(=O)(O)OC[C@H]3O[C@@H](n4c[n+](C)c5c(=O)[nH]c(N)nc54)[C@H](O)[C@@H]3O)=[N+]1[B-]2(F)F [Compound 1a, m^7GTPγS-BODIPY-FL] |  | time to complete hydrolysis by D9 [1]: ~ 40 min
2 | C[n+]1cn([C@@H]2O[C@H](COP(=O)(O)OP(=O)([O-])OP(=O)(O)CCc3cn(CCOCCOCCNC(=O)Cc4ccc5ccc6cccc7ccc4c5c67)nn3)[C@@H](O)[C@H]2O)c2nc(N)[nH]c(=O)c21 [Compound 1b, m^7GTP-Py] |  | time to complete hydrolysis by D9 [1]: ~ 40 min
3 | C[n+]1cn([C@@H]2O[C@H](COP(=O)([O-])OP(=O)(O)O)[C@@H](O)[C@H]2O)c2nc(N)[nH]c(=O)c21 [m7GDP] |  | IC50 [2]: 14.2 ± 2.4 µM; D9 inhibition (literature) [3]: less potent D9 inhibitors
4 | Cn1c[n+]([C@@H]2O[C@H](COP(=O)([O-])OP(=O)(O)OP(=O)(O)O)[C@@H](O)[C@H]2O)c2nc(N)[nH]c(=O)c21 [m7GTP] | 0.77 ± 0.06 | susceptibility to hydrolysis by D9 [4]: very poor D9 substrates; D9 inhibition (literature) [3]: less potent D9 inhibitors
5 | C[n+]1cn([C@@H]2O[C@H](COP(=O)([S-])OP(=O)(O)OP(=O)(O)OP(=O)([S-])OC[C@H]3O[C@@H](n4c[n+](C)c5c(O)nc(N)nc54)[C@H](O)[C@@H]3O)[C@@H](O)[C@H]2O)c2nc(N)nc(O)c21 (stereo partly shown) [m7GpSpppSm7G D3] |  | inhibition of yeast decapping enzyme SpDcp1/Dcp2 (literature) [5]: inhibitor; IC50 [2, 9]: 3.6 ± 0.4 µM
6 | C[n+]1cn(C2OC(COP(=O)([O-])OP(=O)(O)C(F)(F)P(=O)(O)OP(=O)([O-])OCC3OC(n4c[n+](C)c5c(=O)[nH]c(N)nc54)C(O)C3O)C(O)C2O)c2nc(N)[nH]c(=O)c21 (stereo not shown) [m7GppCF2ppm7G] | 14.7 ± 2.6 | 
7 | CO[C@@H]1[C@H](OP(=O)(O)OC[C@H]2O[C@@H](n3cnc4c(=O)[nH]c(N)nc43)[C@H](O)[C@@H]2O)[C@@H](COP(=O)(O)CP(=O)(O)OP(=O)([O-])OC[C@H]2O[C@@H](n3c[n+](C)c4c(O)nc(N)nc43)[C@H](O)[C@@H]2O)O[C@H]1n1cnc2c(N)ncnc21 [m7GppCH2pAmpG] | 27.4 ± 6.2 | 
8 | C[n+]1cn([C@@H]2O[C@H](COP(=O)([O-])OP(=O)(O)CP(=O)(O)O)[C@@H](O)[C@H]2O)c2nc(N)nc(O)c21 [m7GppCH2p] | 1.1 ± 0.1 | 
9 | C[n+]1cn(C2OC(COP(=O)([O-])OP(=O)(O)OP(=O)(O)OCC3OC(n4cnc5c(=S)[nH]c(N)nc54)C(O)C3O)C(O)C2O)c2nc(N)[nH]c(=O)c21 (stereo not shown) [m7Gppp6SG] | 14.1 ± 1.7 | 
10 | CNc1ncnc2c1ncn2[C@@H]1O[C@H](COP(=O)(O)OP(=O)(O)OP(=O)(O)OC[C@H]2O[C@@H](n3c[n+](C)c4c(=O)[nH]c(N)nc43)[C@H](O)[C@@H]2O)[C@@H](O)[C@H]1O [m7Gppp(m6A)] | 31.5 ± 5.9 | 
11 | Cn1c[n+]([C@@H]2O[C@H](COP(=O)(O)OP(=O)(O)OP(=O)(O)OC[C@H]3O[C@@H](n4cnc5c(N)ncnc54)[C@H](O)[C@@H]3O)[C@@H](O)[C@H]2O)c2nc(N)[nH]c(=O)c21 [m7GpppA] | 33 ± 5.9 | 
12 | CO[C@@H]1[C@H](O)[C@@H](COP(=O)(O)OP(=O)(O)OP(=O)(O)OC[C@H]2O[C@@H]([n+]3cn(C)c4c(=O)[nH]c(N)nc43)[C@H](O)[C@@H]2O)O[C@H]1n1cnc2c(N)ncnc21 [m7GpppAm] | 19.8 ± 3.6 | 
13 | CO[C@@H]1[C@H](OP(=O)(O)OC[C@H]2O[C@@H](n3cnc4c(=O)[nH]c(N)nc43)[C@H](O)[C@@H]2O)[C@@H](COP(=O)(O)OP(=O)(O)OP(=O)([O-])OC[C@H]2O[C@@H]([n+]3cn(C)c4c(=O)[nH]c(N)nc43)[C@H](O)[C@@H]2O)O[C@H]1n1cnc2c(N)ncnc21 [m7GpppAmpG] | 20.4 ± 3.4 | 
14 | C[n+]1cn([C@@H]2O[C@H](COP(=O)(O)OP(=O)([O-])OP(=O)(O)CP(=O)(O)O)[C@@H](O)[C@H]2O)c2nc(N)nc(O)c21 [m7GpppCH2p] |  | inhibitory activity toward D10 [6]: weak inhibitory activity; IC50 [2, 9]: ~0.08 µM
15 | Cn1c[n+]([C@@H]2O[C@H](COP(=O)(O)OP(=O)([O-])OP(=O)(O)OC[C@H]3O[C@@H](n4cnc5c(=O)[nH]c(N)nc54)[C@H](O)[C@@H]3O)[C@@H](O)[C@H]2O)c2nc(N)[nH]c(=O)c21 [m7GpppG] | 11.3 ± 1.9 | IC50 ([2]; LOPAC hits and reference compounds (Table 2), 3 μM probe 1b, 5 nM D9, 30 °C, mean ± SEM of three experiments, read-out: IC50, inhibitors identified by HTS screening): 15 ± 2 µM; susceptibility to hydrolysis by D9 [4]: very poor D9 substrates; D9 inhibition (literature) [3]: less potent D9 inhibitors
16 | CO[C@@H]1[C@H](OP(=O)(O)OC[C@H]2O[C@@H](n3cnc4c(=O)[nH]c(N)nc43)[C@H](O)[C@@H]2O)[C@@H](COP(=O)(O)OP(=O)(O)OP(=O)([O-])OC[C@H]2O[C@@H]([n+]3cn(C)c4c(=O)[nH]c(N)nc43)[C@H](O)[C@@H]2O)O[C@H]1n1cnc2c(=O)[nH]c(N)nc21 [m7GpppGmpG] | 12 ± 2.4 | 
17 | CNc1ncnc2c1ncn2[C@@H]1O[C@H](COP(=O)(O)OP(=O)(O)OP(=O)(O)OC[C@H]2O[C@@H](n3c[n+](C)c4c(=O)[nH]c(N)nc43)[C@H](O)[C@@H]2O)[C@@H](OP(=O)(O)OC[C@H]2O[C@@H](n3cnc4c(=O)[nH]c(N)nc43)[C@H](O)[C@@H]2O)[C@H]1O [m7Gpppm6ApG] | 16.9 ± 3.2 | 

Row | Compound | IC50 [2, 8] [µM] | also measured
18 | C[n+]1cn([C@@H]2O[C@H](COP(=O)(O)OP(=O)(O)OP(=O)(O)OC[C@H]3O[C@@H](n4c[n+](C)c5c(=O)[nH]c(N)nc54)[C@H](O)[C@@H]3O)[C@@H](O)[C@H]2O)c2nc(N)[nH]c(=O)c21 [m7Gpppm7G] | 14.3 ± 2.1 | 
19 | C[n+]1cn(C2OC(COP(=O)([O-])OP(=O)(O)OP(=O)(O)OP(=O)(O)OP(=O)(O)OCC3OC(n4cnc5c(=O)[nH]c(N)nc54)C(O)C3O)C(O)C2O)c2nc(N)[nH]c(=O)c21 (stereo not shown) [m7GpppppG] | 13.9 ± 2.5 | 
20 | CO[C@H]1[C@@H](O)[C@H]([n+]2cn(C)c3c(=O)[nH]c(N)nc32)O[C@@H]1COP(=O)([O-])OP(=O)(O)OP(=O)(O)OC[C@H]1O[C@@H](n2cnc3c(=O)[nH]c(N)nc32)[C@H](O)[C@@H]1O [m27,3’OGpppG] | 10.6 ± 1.1 | 
21 | Gpp-SCH2-triazole-m7G | > 100 | 
22 | Gpp-triazole-m7G | > 100 | 
23 | Gppp-SCH2-triazole-m7G | > 100 | 
24 | Gppp-triazole-m7G | 35 ± 5.3 | 
25 | VACV D9 decapping enzyme (Vaccinia virus WR) |  | Km [7]: 12.9 ± 2.2 µM; kcat/Km [7]: 6300 ± 1200 M⁻¹ s⁻¹
26 | m7GNpppG | 32.1 ± 5.9 | 
27 | m7Gmppp6SG | 7.2 ± 1.1 | 
28 | m7Gpp-SCH2-triazole-G | 46 ± 6.8 | 
29 | m7Gpp-triazole-G | 17.5 ± 2.6 | 
30 | m7GppCCl2ppm7G | 28.8 ± 4.1 | 
31 | m7GppCCppG | 24.4 ± 4 | 
32 | m7Gppp m6AmpG | 17.4 ± 3 | 
33 | m7Gppp-SCH2-triazole-G | 24.9 ± 4.8 | 
34 | m7GpppApG | 11.3 ± 2 | 
